Reference: patent US20170239289A1, “TREATMENT OF INFLAMMATION, RESPIRATORY TRACT INFECTIONS AND CYSTIC FIBROSIS” (Advanced Inhalation Therapies (AIT) Ltd., priority 2014, published 2017)
“And” between values parts separate entries of the source, which are not always exact repeats. Identical values can stand only once.

Test system: human subjects diagnosed with acute bronchiolitis
Assay: Example 3: randomized bronchiolitis study, infants 2-12 months; 160 ppm NO 30 min 5x daily up to 5 days plus O2 vs O2 alone; efficacy
Format: in vivo
Source text: Eligible subjects were randomized (1:1) to receive intermittent NO and standard treatment with O2 (hereafter referred to as NO treatment) or standard treatment with O2 (hereafter referred to as standard treatment) alone for a treatment period of up to 5 days. During treatment, MetHb and O2 saturation levels were continuously monitored using a dedicated monitor.
In addition to standard supportive O2 treatment which was initiated prior to randomization, subjects in the NO group were given five 30 minute inhalations per day of 160 ppm NO, at intervals of 3 to 4 hours, until subject improvement led to a physician decision of fit to discharge, to a maximum of 25 inhalations over 5 consecutive days. Inhalations were administered via hospital face masks (Hospiltak, Unomedical Inc).
All subjects in the control group were managed with standard supportive O2 treatment in the same way as the active treatment group, but without actual NO administration.
Secondary Endpoints—Efficacy: • LOS in hours, measured as time from first inhalation treatment to “fit to discharge” • Time to reach 92% O2 saturation (in room air) measured as time from first inhalation treatment to first O2 saturation of 92% sustained to discharge • Time to clinical score of less than or equal to 5 measured as time from first inhalation treatment to clinical score of less than or equal to 5
The following analysis sets were defined for analysis of safety and efficacy: • Intent-to-treat (ITT): Defined as all randomized subjects who received at least one study treatment. This was the main set for analysis of efficacy and safety. • Per-Protocol (PP): Defined as all subjects in the ITT cohort who completed study treatment in compliance with the protocol (i.e., excludes all early termination subjects) and who had no major protocol violations. This was a secondary set for analysis of efficacy.
An additional set for analysis of efficacy was defined post-hoc: • Modified Intent-to-treat (mITT): Defined as all subjects in the ITT, excluding subjects who were prematurely discontinued from treatment and/or or discontinued from the study according to protocol guidelines.
Length of hospitalization stay (LOS) was calculated in hours from the first inhalation treatment to “fit to discharge” defined as physician decision to discharge.
Time to achieve O2 saturation of 92% (improvement) leading to discharge was calculated from first treatment to the first time of O2 saturation of at least 92% before discharge. Time was taken from the clinical score assessments where applicable and from subject daily chart in special circumstances.
Time to clinical score of less than or equal to 5 was calculated from first inhalation to the first time the subject reached a clinical score of less than or equal to 5.
Survival Analysis using a Kaplan-Meier survival function curve was applied for testing the statistical significance of the difference between the study groups in the following endpoints: • LOS, from first inhalation to fit to discharge • Time to achieve 92% Saturation leading to discharge • Time to achieve clinical score less than or equal to 5
The Cox model was applied for comparative analysis of Kaplan-Meier curves. The hazards ratio was estimated via the Cox's regression model.
Post-hoc subgroup analyses of subjects with a LOS less than or equal to 24 hours and greater than 24 hours were also conducted for the key post-hoc secondary endpoints. Additional exploratory analyses were also conducted on a subgroups with LOS greater than 36 hours and a subgroup of the 10 most severe subjects (i.e., longest LOS) from each treatment group. These post-hoc analyses were conducted for the following reasons: • Based on preclinical studies, the anti-viral/anti-microbial treatment effect of NO is expected to take at least 24 hours (i.e., 2.5 treatment hours). • Approximately ⅓ of subjects were discharged after less than 24 hours in hospital. […]

[1] = mITT, 10 most severe subjects from each group
[2] = mITT, LOS greater than 24 hours
[3] = mITT, LOS greater than 36 hours

SMILES: [N]=O [NO, nitric oxide]
- Hazard ratio, time to sustained 92% O2 saturation (ITT (N=42), NO vs standard treatment, 95% CI: 0.392, 1.361): 0.731
- Hazard ratio, time to clinical score less than or equal to 5 (ITT (N=43), NO vs standard treatment, 95% CI: 0.378, 1.404): 0.728
- Hazard ratio, LOS (Kaplan-Meier/Cox) (ITT (N=43), NO vs standard treatment, 95% CI: 0.435, 1.518): 0.812
- Time to first 92% O2 saturation sustained to discharge, Mean (SD) (ITT, All (N = 42)): 35.50 (33.73) hours and 35.50 hours
- Time to first 92% O2 saturation sustained to discharge, Median (ITT, All (N = 42)): 21.08 h
- LOS, hours Mean (SD) (ITT, All (N = 43)): 43.34 (32.95) hours and 43.34 hours
- LOS, hours Median (ITT, All (N = 43)): 40.03 h
- Time to Clinical Score ≦5, Mean (SD) (ITT, All (N = 43)): 32.83 (30.61) hours and 32.83 hours
- Time to Clinical Score ≦5, Median (ITT, All (N = 43)): 21.08 h
- LOS, hours Mean (SD) (ITT, LOS >24 hours (N = 27)): 53.27 h
- LOS, hours Median (ITT, LOS >24 hours (N = 27)): 41.92 h
- Time to Clinical Score ≦5, Mean (SD) (ITT, LOS >24 hours (N = 27)): 39.62 h
- Time to Clinical Score ≦5, Median (ITT, LOS >24 hours (N = 27)): 39.92 h
- Time to first 92% O2 saturation sustained to discharge, Mean (SD) (ITT, LOS >24 hours (N = 27)): 43.35 h
- Time to first 92% O2 saturation sustained to discharge, Median (ITT, LOS >24 hours (N = 27)): 41.17 h
- Hazard ratio, time to clinical score less than or equal to 5 (ITT, LOS greater than 24 hours, 95% CI: 0.161, 0.949): 0.391
- Hazard ratio, LOS (Kaplan-Meier/Cox) (ITT, LOS greater than 24 hours, 95% CI: 0.211, 1.091): 0.480
- Hazard ratio, time to sustained 92% O2 saturation (ITT, LOS greater than 24 hours, 95% CI: 0.232, 1.145): 0.515
- Time to first 92% O2 saturation sustained to discharge, Mean (SD) (ITT, LOS ≦24 hours (N = 15)): 15.86 h
- Time to first 92% O2 saturation sustained to discharge, Median (ITT, LOS ≦24 hours (N = 15)): 16.78 h
- LOS, hours Mean (SD) (ITT, LOS ≦24 hours (N = 16)): 18.52 h
- LOS, hours Median (ITT, LOS ≦24 hours (N = 16)): 18.50 h
- Time to Clinical Score ≦5, Mean (SD) (ITT, LOS ≦24 hours (N = 16)): 15.86 h
- Time to Clinical Score ≦5, Median (ITT, LOS ≦24 hours (N = 16)): 16.78 h
- Hazard ratio, time to sustained 92% O2 saturation (PP (N=38), 95% CI: 0.334, 1.302): 0.660
- Hazard ratio, time to clinical score less than or equal to 5 (PP (N=39), 95% CI: 0.332, 1.324): 0.663
- Hazard ratio, LOS (Kaplan-Meier/Cox) (PP (N=39), 95% CI: 0.444, 1.688): 0.866
- Time to first 92% O2 saturation sustained to discharge, Mean (SD) (PP, All (N = 38)): 30.17 (21.06) hours and 30.17 hours
- Time to first 92% O2 saturation sustained to discharge, Median (PP, All (N = 38)): 21.08 h
- LOS, hours Mean (SD) (PP, All (N = 39)): 38.79 (21.52) hours and 38.79 hours
- LOS, hours Median (PP, All (N = 39)): 40.03 h
- Time to Clinical Score ≦5, Mean (SD) (PP, All (N = 39)): 27.18 (13.17) hours and 27.18 hours
- Time to Clinical Score ≦5, Median (PP, All (N = 39)): 21.08 h
- LOS, hours Mean (SD) (PP, LOS >24 hours (N = 24)): 46.03 h
- LOS, hours Median (PP, LOS >24 hours (N = 24)): 41.83 h
- Time to Clinical Score ≦5, Mean (SD) (PP, LOS >24 hours (N = 24)): 31.41 h
- Time to Clinical Score ≦5, Median (PP, LOS >24 hours (N = 24)): 34.92 h
- Time to first 92% O2 saturation sustained to discharge, Mean (SD) (PP, LOS >24 hours (N = 24)): 35.47 h
- Time to first 92% O2 saturation sustained to discharge, Median (PP, LOS >24 hours (N = 24)): 38.98 h
- Hazard ratio, time to clinical score less than or equal to 5 (PP, LOS greater than 24 hours, 95% CI: 0.093, 0.799): 0.273
- Hazard ratio, time to sustained 92% O2 saturation (PP, LOS greater than 24 hours, 95% CI: 0.139, 0.921): 0.358
- Hazard ratio, LOS (Kaplan-Meier/Cox) (PP, LOS greater than 24 hours, 95% CI: 0.164, 1.062): 0.418
- Time to first 92% O2 saturation sustained to discharge, Mean (SD) (PP, LOS ≦24 hours (N = 14)): 15.32 h
- Time to first 92% O2 saturation sustained to discharge, Median (PP, LOS ≦24 hours (N = 14)): 16.75 h
- LOS, hours Mean (SD) (PP, LOS ≦24 hours (N = 15)): 18.50 h
- LOS, hours Median (PP, LOS ≦24 hours (N = 15)): 18.42 h
- Time to Clinical Score ≦5, Mean (SD) (PP, LOS ≦24 hours (N = 15)): 15.32 h
- Time to Clinical Score ≦5, Median (PP, LOS ≦24 hours (N = 15)): 16.75 h
- median time to clinical score less than or equal to 5 (mITT, 10 most severe subjects (based on LOS) from each group): 41.56 h
- median LOS [1]: 42.14 h
- median time to 92% O2 saturation sustained to discharge [1]: 41.59 h
- median time to clinical score less than or equal to 5 [2]: 34.92 h
- median time to first 92% O2 saturation sustained to discharge [2]: 38.98 h
- median LOS (mITT, LOS greater than 24 hours (N=25)): 41.83 h
- Hazard ratio, time to clinical score less than or equal to 5 (mITT, LOS greater than 24 hours, 95% CI: 0.081, 0.699): 0.238
- Hazard ratio, time to sustained 92% O2 saturation (mITT, LOS greater than 24 hours, 95% CI: 0.119, 0.797): 0.308
- Hazard ratio, LOS (Kaplan-Meier/Cox) (mITT, LOS greater than 24 hours, 95% CI: 0.140, 0.913): 0.357
- median LOS [3]: 41.92 h
- median time to 92% O2 saturation sustained to discharge [3]: 41.37 h
- median time to clinical score less than or equal to 5 [3]: 41.37 h
